Values of other authors, collected in patent US20120059013A1, “METHOD OF TREATING EARLY MORNING AKINESIA IN SUBJECTS HAVING PARKINSON'S DISEASE” (priority 2010, published 2012).

Key:
[1] = humans
[2] = system: hepatic cytochrome P450 enzymes; conditions: humans

For `CCCN[C@H]1CCc2nc(N)sc2C1` [Pramipexole, (S)-2-amino-4,5,6,7,-tetrahydro-6-(propylamino)benzothiazole], the Half-life [1] is given as “long half-life”, the Oral bioavailability [1] is given as “high oral bioavailablity” and the “Interaction with hepatic cytochrome P450 enzymes” value [2] is given as “no significant interaction with hepatic cytochrome P450 enzymes”.
